For this assay, the target named is T1, Zcchc11 enzyme (Homo sapiens, UniProt Q5TAX3).
T1 construct: made in house; host or cells: HEK293 cells (Zcchc11); E. coli Rosetta II (LIN28A)
T1 sequence (Q5TAX3 212-1420): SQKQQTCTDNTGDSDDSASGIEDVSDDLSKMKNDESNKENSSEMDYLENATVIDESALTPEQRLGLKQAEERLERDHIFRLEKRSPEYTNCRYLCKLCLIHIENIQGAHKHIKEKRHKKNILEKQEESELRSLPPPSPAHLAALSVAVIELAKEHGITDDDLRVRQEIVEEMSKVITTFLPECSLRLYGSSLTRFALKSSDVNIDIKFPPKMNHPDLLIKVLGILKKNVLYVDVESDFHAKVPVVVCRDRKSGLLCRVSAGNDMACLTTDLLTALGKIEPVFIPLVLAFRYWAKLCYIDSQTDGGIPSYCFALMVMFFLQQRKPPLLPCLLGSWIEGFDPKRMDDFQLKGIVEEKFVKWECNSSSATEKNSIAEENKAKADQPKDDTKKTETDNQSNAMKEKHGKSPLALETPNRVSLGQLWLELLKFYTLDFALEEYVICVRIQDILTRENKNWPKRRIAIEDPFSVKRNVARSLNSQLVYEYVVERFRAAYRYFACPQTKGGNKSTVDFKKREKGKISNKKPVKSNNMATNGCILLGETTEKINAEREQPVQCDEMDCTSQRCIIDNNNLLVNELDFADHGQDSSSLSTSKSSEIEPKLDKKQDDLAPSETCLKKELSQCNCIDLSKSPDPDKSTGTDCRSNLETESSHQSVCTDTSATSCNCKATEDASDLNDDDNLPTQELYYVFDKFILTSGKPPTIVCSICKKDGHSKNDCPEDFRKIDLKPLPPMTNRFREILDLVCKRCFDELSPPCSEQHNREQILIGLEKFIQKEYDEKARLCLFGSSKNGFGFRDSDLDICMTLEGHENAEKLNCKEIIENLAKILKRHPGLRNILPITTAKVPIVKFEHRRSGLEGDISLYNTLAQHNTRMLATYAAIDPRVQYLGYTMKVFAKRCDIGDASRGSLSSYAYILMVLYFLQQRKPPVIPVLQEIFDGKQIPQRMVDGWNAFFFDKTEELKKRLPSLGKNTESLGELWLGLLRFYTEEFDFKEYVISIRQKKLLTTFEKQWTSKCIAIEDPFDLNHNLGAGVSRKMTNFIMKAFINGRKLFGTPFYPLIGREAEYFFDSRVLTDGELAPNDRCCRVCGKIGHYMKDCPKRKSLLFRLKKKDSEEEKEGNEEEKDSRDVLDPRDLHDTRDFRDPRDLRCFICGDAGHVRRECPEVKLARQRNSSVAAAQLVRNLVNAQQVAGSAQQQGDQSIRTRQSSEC
Description: TUTase assay (Zcchc11 assay, Lin28a-dependent polyuridylation of pre-let-7). The settings on record: Lin28a-dependent Zcchc11 (Z11) TUTase activity; read-out: Potency Lin28a-dep Z11 IC50. Format: biochemical. Put shortly:
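Potency is measured as inhibition of LIN28A-driven U-tail addition to 2 nM pre-let-7 by 0.2 nM HEK293-derived Zcchc11 fragment with 5 uM UTP at room temperature. Tail growth appears as fluorescein quenching by an annealing rhodamine-A20 probe.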

In general, IC50 refers to the concentration that gives 50% inhibition.

On to `O=C(O)c1cn(-c2cccc(F)c2F)c2cc(N3CCC[C@@H]3COc3ccccn3)c(F)cc2c1=O` [Compound 142, (R)-1-(2,3-difluorophenyl)-6-fluoro-4-oxo-7-(2-((pyridin-2-yloxy)methyl)pyrrolidin-1-yl)-1,4-dihydro-quinoline-3-carboxylic acid], for which the IC50 is 1000 to 10000 nM. Consider `O=C(O)c1cn(-c2cc(F)ccc2F)c2cc(N3CCC[C@@H]3COc3ccccn3)c(F)cc2c1=O` [Compound 143, (R)-1-(2,5-difluorophenyl)-6-fluoro-4-oxo-7-(2-((pyridin-2-yloxy)methyl)pyrrolidin-1-yl)-1,4-dihydro-quinoline-3-carboxylic acid], for which the IC50 is 1000 to 10000 nM. With `O=C(O)c1cn(-c2cc(F)cc(F)c2)c2cc(N3CCC[C@@H]3COc3ccccn3)c(F)cc2c1=O` [Compound 144, (R)-1-(3,5-difluorophenyl)-6-fluoro-4-oxo-7-(2-((pyridin-2-yloxy)methyl)pyrrolidin-1-yl)-1,4-dihydro-quinoline-3-carboxylic acid] the figure was 1000 to 10000 nM; with `O=C(O)c1cn(-c2ccc(Cl)cc2)c2cc(N3CCC[C@@H]3COc3ccccn3)c(F)cc2c1=O` [Compound 145, (R)-1-(4-chlorophenyl)-6-fluoro-4-oxo-7-(2-((pyridin-2-yloxy)methyl)pyrrolidin-1-yl)-1,4-dihydro-quinoline-3-carboxylic acid], at most 1000 nM. Take `COc1cccc(-n2cc(C(=O)O)c(=O)c3cc(F)c(N4CCC[C@@H]4COc4ccccn4)cc32)c1` [Compound 146, (R)-6-fluoro-1-(3-methoxy-phenyl)-4-oxo-7-(2-((pyridin-2-yloxy)methyl)pyrrolidin-1-yl)-1,4-dihydro-quinoline-3-carboxylic acid]: the IC50 is at most 1000 nM. The value for `COc1ccc(-n2cc(C(=O)O)c(=O)c3cc(F)c(N4CCC[C@@H]4COc4ccccn4)cc32)cc1` [Compound 147, (R)-6-fluoro-1-(4-methoxy-phenyl)-4-oxo-7-(2-((pyridin-2-yloxy)methyl)pyrrolidin-1-yl)-1,4-dihydro-quinoline-3-carboxylic acid] was at most 1000 nM; that for `CS(=O)(=O)Nc1ccc(-n2cc(C(=O)O)c(=O)c3cc(F)c(N4CCC[C@@H]4COc4ccccn4)cc32)cc1` [Compound 148, (R)-6-fluoro-1-(4-(methyl-sulfonamido)phenyl)-4-oxo-7-(2-((pyridin-2-yloxy)methyl)pyrrolidin-1-yl)-1,4-dihydro-quinoline-3-carboxylic acid] was at most 1000 nM. The value for `O=C(O)c1cn(-c2ccc(F)c(F)c2)c2cc(N3CCC[C@@H]3COc3ccccn3)c(F)cc2c1=O` [Compound 149, (R)-1-(3,4-difluorophenyl)-6-fluoro-4-oxo-7-(2-((pyridin-2-yloxy)methyl)pyrrolidin-1-yl)-1,4-dihydro-quinoline-3-carboxylic acid] was 1000 to 10000 nM; that for `O=C(O)c1cn(-c2ccc(F)cn2)c2cc(N3CCC[C@@H]3COc3ccccn3)c(F)cc2c1=O` [Compound 150, (R)-6-fluoro-1-(5-fluoropyridin-2-yl)-4-oxo-7-(2-((pyridin-2-yloxy)methyl)pyrrolidin-1-yl)-1,4-dihydro-quinoline-3-carboxylic acid] was 1000 to 10000 nM. With `O=C(O)c1cn(-c2ccc(F)cc2)c2cc(N3CCC[C@@H]3COc3ccccn3)c(F)cc2c1=O` [Compound 151, (R)-6-fluoro-1-(4-fluorophenyl)-4-oxo-7-(2-((pyridin-2-yloxy)methyl)pyrrolidin-1-yl)-1,4-dihydro-quinoline-3-carboxylic acid] the figure was at most 1000 nM; with `O=C(O)c1cn(-c2ccc(O)cc2Cl)c2cc(N3CCC[C@@H]3COc3ccccn3)c(F)cc2c1=O` [Compound 152, (R)-1-(2-chloro-4-hydroxy-phenyl)-6-fluoro-4-oxo-7-(2-((pyridin-2-yloxy)methyl)pyrrolidin-1-yl)-1,4-dihydro-quinoline-3-carboxylic acid], 1000 to 10000 nM; with `O=C(O)c1cn(-c2cc(F)ccc2Cl)c2cc(N3CCC[C@@H]3COc3ccccn3)c(F)cc2c1=O` [Compound 153, (R)-1-(2-chloro-5-fluorophenyl)-6-fluoro-4-oxo-7-(2-((pyridin-2-yloxy)methyl)pyrrolidin-1-yl)-1,4-dihydro-quinoline-3-carboxylic acid], 1000 to 10000 nM. On to `Cc1cccc(F)c1-n1cc(C(=O)O)c(=O)c2cc(F)c(N3CCC[C@@H]3COc3ccccn3)cc21` [Compound 154, (R)-6-fluoro-1-(2-fluoro-6-methylphenyl)-4-oxo-7-(2-((pyridin-2-yloxy)methyl)pyrrolidin-1-yl)-1,4-dihydro-quinoline-3-carboxylic acid], for which the 50% inhibitory concentration (IC50) was 1000 to 10000 nM. Turning to `Cc1cccc(-n2cc(C(=O)O)c(=O)c3cc(F)c(N4CCC[C@@H]4COc4ccccn4)cc32)c1` [Compound 155, (R)-6-fluoro-4-oxo-7-(2-((pyridin-2-yloxy)methyl)pyrrolidin-1-yl)-1-(m-tolyl)-1,4-dihydro-quinoline-3-carboxylic acid], the IC50 was at most 1000 nM.

Take `Cc1ccc(-n2cc(C(=O)O)c(=O)c3cc(F)c(N4CCC[C@@H]4COc4ccccn4)cc32)c(C)c1` [Compound 156, (R)-1-(2,4-dimethyl-phenyl)-6-fluoro-4-oxo-7-(2-((pyridin-2-yloxy)methyl)pyrrolidin-1-yl)-1,4-dihydro-quinoline-3-carboxylic acid]: the half-maximal inhibitory concentration (IC50) fell in the range of 1000 to 10000 nM. The value for `COc1ccc(Cl)c(-n2cc(C(=O)O)c(=O)c3cc(F)c(N4CCC[C@@H]4COc4ccccn4)cc32)c1` [Compound 157, (R)-1-(2-chloro-5-methoxy-phenyl)-6-fluoro-4-oxo-7-(2-((pyridin-2-yloxy)methyl)pyrrolidin-1-yl)-1,4-dihydro-quinoline-3-carboxylic acid] was 1000 to 10000 nM. Consider `COc1ccc(F)c(-n2cc(C(=O)O)c(=O)c3cc(F)c(N4CCC[C@@H]4COc4ccccn4)cc32)c1` [Compound 158, (R)-6-fluoro-1-(2-fluoro-5-methoxy-phenyl)-4-oxo-7-(2-((pyridin-2-yloxy)methyl)pyrrolidin-1-yl)-1,4-dihydro-quinoline-3-carboxylic acid], for which the IC50 lay in the range of 1000 to 10000 nM. For `CC(=O)Nc1ccc(-n2cc(C(=O)O)c(=O)c3cc(F)c(N4CCC[C@@H]4COc4ccccn4)cc32)cc1` [Compound 159, (R)-1-(4-acetamido-phenyl)-6-fluoro-4-oxo-7-(2-((pyridin-2-yloxy)methyl)pyrrolidin-1-yl)-1,4-dihydro-quinoline-3-carboxylic acid], the half-maximal inhibitory concentration (IC50) was at most 1000 nM. With `O=C(O)c1cn(-c2ccccc2CO)c2cc(N3CCC[C@@H]3COc3ccccn3)c(F)cc2c1=O` [Compound 160, (R)-6-fluoro-1-(2-(hydroxy-methyl)phenyl)-4-oxo-7-(2-((pyridin-2-yloxy)methyl)pyrrolidin-1-yl)-1,4-dihydro-quinoline-3-carboxylic acid] the figure was 1000 to 10000 nM.

Turning to `CCc1ccccc1-n1cc(C(=O)O)c(=O)c2cc(F)c(N3CCC[C@@H]3COc3ccccn3)cc21` [Compound 161, (R)-1-(2-ethylphenyl)-6-fluoro-4-oxo-7-(2-((pyridin-2-yloxy)methyl)pyrrolidin-1-yl)-1,4-dihydro-quinoline-3-carboxylic acid], the IC50 was 1000 to 10000 nM.

Values taken from patent US12662491B2 (Redona Therapeutics, Inc., priority 2020, dated 2026).
